4 molecules from US12152255B2, “ω-Transaminase mutant obtained by DNA synthetic shuffling combined mutation and use” (priority 2020, dated 2024) can be followed below.

Where two headings read alike, the source gives them in different places.

Series [1] concerns the target Aspergillus terreus ω-transaminase mutant I77L-F115L-E133A-H210N-N245D (parent SEQ ID NO: 1; gene SEQ ID NO: 6) (Aspergillus terreus, UniProt Q0C8G1, D224K/E133A/F115L/H210N/I77L/N245D). As to the kind of experiment: Kinetic parameters, transamination (acetophenone formation at 245 nm), I77L-F115L-E133A-H210N-N245D. In kind it is biochemical. To be noted: phosphate buffer pH 8.0, 0.1 mM PLP.

Series [2] has as its system Aspergillus terreus ω-transaminase mutant H210N-N245D-E253A-G292D (parent SEQ ID NO: 1; gene SEQ ID NO: 9). Description: Kinetic parameters, transamination (acetophenone formation at 245 nm), H210N-N245D-E253A-G292D. In kind it is biochemical. The settings on record: phosphate buffer pH 8.0, 0.1 mM PLP.
The target of series [3] is Aspergillus terreus ω-transaminase mutant F115L-H210N-M150C-M280C (parent SEQ ID NO: 1; gene SEQ ID NO: 3) (Aspergillus terreus, UniProt Q0C8G1, E253A/F115L/H210N/M150C/M280C). As to the kind of experiment: Kinetic parameters, transamination (acetophenone formation at 245 nm), F115L-H210N-M150C-M280C. In kind it is biochemical. The settings on record: phosphate buffer pH 8.0, 0.1 mM PLP.

Series [4] deals with T1, Aspergillus terreus ω-transaminase, wild type (WT-ATA), SEQ ID NO: 1 (Aspergillus terreus, UniProt Q0C8G1).
T1 sequence (Q0C8G1 1-325): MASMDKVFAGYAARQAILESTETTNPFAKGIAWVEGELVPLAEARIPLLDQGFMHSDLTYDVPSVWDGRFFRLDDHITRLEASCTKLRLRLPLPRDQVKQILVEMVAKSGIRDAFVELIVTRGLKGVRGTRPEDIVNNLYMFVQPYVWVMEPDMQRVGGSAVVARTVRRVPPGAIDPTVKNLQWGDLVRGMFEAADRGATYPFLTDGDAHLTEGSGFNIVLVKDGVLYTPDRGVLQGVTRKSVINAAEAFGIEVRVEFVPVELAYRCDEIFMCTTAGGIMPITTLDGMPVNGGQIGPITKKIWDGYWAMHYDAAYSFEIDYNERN
As to the kind of experiment: Kinetic parameters, transamination (acetophenone formation at 245 nm), WT-ATA. To be noted: phosphate buffer pH 8.0, 0.1 mM PLP.

Series [5] addresses Aspergillus terreus ω-transaminase mutant I77L-E133A-N245D-G292D (parent SEQ ID NO: 1; gene SEQ ID NO: 8) (Aspergillus terreus, UniProt Q0C8G1, E133A/G292D/I77L/N245D). Description: Kinetic parameters, transamination (acetophenone formation at 245 nm), I77L-E133A-N245D-G292D. In kind it is biochemical. To be noted: phosphate buffer pH 8.0, 0.1 mM PLP.
Series [6] has as its target Aspergillus terreus ω-transaminase mutant F115L-H210N-E253A-I295V (parent SEQ ID NO: 1; gene SEQ ID NO: 5) (Aspergillus terreus, UniProt Q0C8G1). Description: Kinetic parameters, transamination (acetophenone formation at 245 nm), F115L-H210N-E253A-I295V. In kind it is biochemical.
In series [7] the target is Aspergillus terreus ω-transaminase mutant I77L-Q97E-F115L-L118T-E253A-G292D (parent SEQ ID NO: 1; gene SEQ ID NO: 7) (Aspergillus terreus, UniProt Q0C8G1, D224A/E253A/F115L/G292D/I77L/L118T/Q97E). As to the kind of experiment: Kinetic parameters, transamination (acetophenone formation at 245 nm), I77L-Q97E-F115L-L118T-E253A-G292D. In kind it is biochemical. The settings on record: phosphate buffer pH 8.0, 0.1 mM PLP.

The target in series [8] is Aspergillus terreus ω-transaminase mutant F115L-H210N (parent SEQ ID NO: 1; gene SEQ ID NO: 4) (Aspergillus terreus, UniProt Q0C8G1, D231A/F115L/H210N). Description: Kinetic parameters, transamination (acetophenone formation at 245 nm), F115L-H210N. In kind it is biochemical. To be noted: phosphate buffer pH 8.0, 0.1 mM PLP.
The test system of series [9] is C[C@@H](N)c1ccccc1. As to the kind of experiment: Kinetic parameters, transamination (acetophenone formation at 245 nm), I77L-E133A-N245D-G292D. In kind it is biochemical, Aspergillus terreus. The settings on record: other: I77L-E133A-N245D-G292D, phosphate buffer pH 8.0, 0.1 mM PLP.
For series [10], the system named is CC(=O)C(=O)O. Described as above. In kind it is biochemical, Aspergillus terreus. To be noted: other: I77L-E133A-N245D-G292D, phosphate buffer pH 8.0, 0.1 mM PLP.
Substrate in series [11]: CC(=O)C(=O)O
Description: purified protein, by the assay type. The settings on record: other: WT-ATA, phosphate buffer pH 8.0, 0.1 mM PLP.

[12] abbreviates: phosphate buffer pH 8.0, 0.1 mM PLP.

A word on the Km: it is the substrate concentration at which the rate is half of its maximum. In the case of `CC(=O)C(=O)O` [pyruvate, pyruvic acid], the “Kcat^pyruvate” value is 1.96 ± 0.03 s⁻¹ in series [1]; 1.89 ± 0.03 s⁻¹ in series [2]; 3.87 ± 0.03 s⁻¹ in series [3]; 0.50 ± 0.01 s⁻¹ in series [4]; 3.05 ± 0.02 s⁻¹ in series [5]; 3.17 ± 0.01 s⁻¹ in series [6] (setting [12]). In addition, the “Kcat^pyruvate” value in series [7] was determined as 2.76 ± 0.01 s⁻¹; in series [8], 2.55 ± 0.01 s⁻¹. The “kcat/Km^pyruvate” value in [1] is 990 M⁻¹ s⁻¹; in series [2] it was 3010 M⁻¹ s⁻¹; in series [3], 1450 M⁻¹ s⁻¹; in series [4], 2220 M⁻¹ s⁻¹; in series [5], 1180 M⁻¹ s⁻¹; in series [6] (setting [12]), 2030 M⁻¹ s⁻¹. The “kcat/Km^pyruvate” value in series [7] came to 1330 M⁻¹ s⁻¹; in series [8] it was 1710 M⁻¹ s⁻¹. Also, in series [6] (read-out: Km^pyruvate, phosphate buffer pH 8.0, 0.1 mM PLP), the Km was found to be 1560 ± 70 µM.
In the case of “Aspergillus terreus ω-transaminase mutant I77L-E133A-N245D-G292D (parent SEQ ID NO: 1; gene SEQ ID NO: 8) (Aspergillus terreus NIH2624; E133A/G292D/I77L/N245D)”, the Km in series [9] worked out at 840 ± 50 µM; in series [10] it was 2590 ± 20 µM.
As for `C[C@@H](N)c1ccccc1` [α-MBA, (R)-(+)-α-methylbenzylamine], in series [6] (read-out: Km^α-MBA, phosphate buffer pH 8.0, 0.1 mM PLP), the Km was determined as 800 ± 30 µM.

B1: Aspergillus terreus ω-transaminase, wild type (WT-ATA), SEQ ID NO: 1 (Aspergillus terreus NIH2624) (protein)
chain: T1 sequence (Q0C8G1 1-325)
Consider B1, for which the Km in [11] stood at 230 ± 20 µM.
